Laboratory results from the supplement of paper PMC11061612.

Key:
[1] = test system: OSC-20 (Oral Cavity Carcinoma); assay: Bliss excess, mean over the matrix (fraction); higher = more synergy
Outline: (§1)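 Bliss excess equals the observed combination effect minus the expected value EA + EB − EA·EB, where EA and EB are the effects of each agent alone. Combination Emax is the second-highest inhibition within the matrix. Inhibition was scaled from CellTiter-Glo 2.0 luminescence, with 0 set by vehicle wells and 1 by blank wells, after 72 hours of two-drug dosing of cells plated in 1536-well plates.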

NB69 (Neuroblastoma) = assay: combination Emax (second highest fraction inhibited in the dose matrix, 72 h); higher = more inhibition; extreme values may be limits of the assay
Outline: as §1

[2] = test system: OE19 (Esophageal Adenocarcinoma); assay: as above
Outline: as §1

[3] = test system: OVCAR-4 (Ovarian Carcinoma); assay: as above
Outline: as §1

[4] = test system: HOP-62 (Lung Adenocarcinoma); assay: as above
Outline: as §1

[5] = test system: HGC-27 (Gastric Carcinoma); assay: as above
Outline: as §1

YH-13 (Glioblastoma) = assay: as above
Outline: as §1

[6] = test system: MLMA (Other Blood Carcinomas); assay: as above
Outline: as §1

[7] = test system: PANC-04-03 (Pancreatic Carcinoma); assay: as above
Outline: as §1

TGW (Neuroblastoma) = assay: as above
Outline: as §1

[8] = test system: EFM-19 (Breast Carcinoma); assay: as above
Outline: as §1

D-263MG (Glioblastoma) = assay: as above
Outline: as §1

[9] = test system: MIA-PaCa-2 (Pancreatic Carcinoma); assay: as above
Outline: as §1

[10] = test system: Ca9-22 (Head and Neck Carcinoma); assay: as above
Outline: as §1

TK10 (Kidney Carcinoma) = assay: as above
Outline: as §1

[11] = test system: SU8686 (Pancreatic Carcinoma); assay: as above
Outline: as §1

[12] = test system: OSC-20 (Oral Cavity Carcinoma); assay: as above
Outline: as §1

[13] = test system: Caov-4 (Ovarian Carcinoma); assay: as above
Outline: as §1

[14] = test system: NCI-H727 (Other Solid Carcinomas); assay: as above
Outline: as §1

[15] = test system: BT-549 (Breast Carcinoma); assay: as above
Outline: as §1

Row | SMILES | Bliss excess [1] | combination Emax (NB69 (Neuroblastoma)) | combination Emax [2] | combination Emax [3] | combination Emax [4] | combination Emax [5] | combination Emax (YH-13 (Glioblastoma)) | combination Emax [6] | combination Emax [7] | combination Emax (TGW (Neuroblastoma)) | combination Emax [8] | combination Emax (D-263MG (Glioblastoma)) | combination Emax [9] | combination Emax [10] | combination Emax (TK10 (Kidney Carcinoma)) | combination Emax [11] | combination Emax [12] | combination Emax [13] | combination Emax [14] | combination Emax [15]
1 | CN(C)CCCOc1ccc(-c2ccc3ncc4c(c3c2)n(C2CCOCC2)c(=O)n4C)cn1 [AZD0156] + C[C@@H]1COCCN1C2=NC(=NC(=C2)C3(CC3)[S@](=N)(=O)C)C4=C5C=CNC5=NC=C4 [AZD6738] (first compound max 1 µM, 7x7, partner max 10 µM) | -0.0085 | 0.745 | 0.869 | 0.697 | 0.546 | 0.862 | 0.578 | 0.79 | 0.615 | 0.833 | 0.345 | 0.857 | 0.605 | 0.925 | 0.695 | 0.365 | 0.334 | 0.744 | 0.635 | 0.46
2 | COc1nnc2ccc(N3CCC(c4ccc(OCCN5CCN(C)C(=O)[C@H]5C)cc4)CC3)nn12 [AZD5153] + C[C@@H]1COCCN1C2=NC(=NC(=C2)C3(CC3)[S@](=N)(=O)C)C4=C5C=CNC5=NC=C4 [AZD6738] (first compound max 1 µM, 7x7, partner max 10 µM) | -0.0201 | 0.991 | 0.616 | 0.711 | 0.664 | 0.859 | 0.663 | 0.967 | 0.545 | 0.728 | 0.549 | 0.465 | 0.919 | 0.878 | 0.695 | 0.1 | 0.309 | 0.894 | 0.59 | 0.637
3 | COc1cccc(OCCCN)c1-c1cc(Nc2cnc(C#N)cn2)n[nH]1 [Prexasertib] + CCc1c2c(nc3ccc(O)cc13)-c1cc3c(c(=O)n1C2)COC(=O)[C@]3(O)CC [SN-38] (first compound max 1 µM, 7x7, partner max 0.3 µM) | -0.0477 | 1 | 0.956 | 0.9 | 0.843 | 0.994 | 0.862 | 0.948 | 0.625 | 0.944 | 0.841 | 0.955 | 0.999 | 0.985 | 0.691 | 0.448 | 0.735 | 1 | 0.696 | 0.864
4 | CC1(C)CCC(CN2CCN(c3ccc(C(=O)NS(=O)(=O)c4ccc(NCC5CCOCC5)c([N+](=O)[O-])c4)c(Oc4cnc5[nH]ccc5c4)c3)CC2)=C(c2ccc(Cl)cc2)C1 [Venetoclax] + COc1cc(Nc2ncc3c(n2)-c2ccc(Cl)cc2C(c2c(F)cccc2OC)=NC3)ccc1C(=O)O [Alisertib] (first compound max 1 µM, 7x7, partner max 10 µM) | -0.051 | 0.915 | 0.785 | 0.344 | 0.456 | 0.919 | 0.549 | 0.866 | 0.263 | 0.972 | 0.557 | 0.518 | 0.583 | 0.706 | 0.35 | 0.117 | 0.345 | 0.447 | 0.326 | 0.529
5 | Cc1c2c(nn1C)CSCc1cc(n(C)n1)CSc1cc(c3ccccc3c1)OCCCc1c(C(=O)O)n(C)c3c-2c(Cl)ccc13 [AZD5991] + C=CCn1c(=O)c2cnc(Nc3ccc(N4CCN(C)CC4)cc3)nc2n1-c1cccc(C(C)(C)O)n1 [AZD1775] (first compound max 1 µM, partner max 1 µM) | -0.0115 | 0.944 | 0.722 | 0.742 | 0.705 | 0.626 | 0.411 | 0.952 | 0.512 | 0.806 | 0.778 | 0.758 | 0.711 | 0.879 | 0.498 | 0.33 | 0.346 | 0.928 | 0.358 | 0.811
